Tested on: gut microbiota
Experiment: Gut microbiome analysis (16S rRNA sequencing of fecal samples) in STAM model of NASH
Format: in vivo, C57BL/6J mice
Conditions: pre (baseline)
Source text: The study is reported in accordance with Animal Research: Reporting of In Vivo Experiments (ARRIVE) guidelines. C57BL/6J mice were obtained from Japan SLC, Inc. (Japan). All animals used in this study were cared for under the following guidelines: Act on Welfare and Management of Animals (Ministry of the Environment, Japan, Act No. 105 of Oct. 1, 1973), standards relating to the care and management of laboratory animals and relief of pain (Notice No. 88 of the Ministry of the Environment, Japan, Apr. 28, 2006) and the guidelines for proper conduct of animal experiments (Science Council of Japan, Jun. 1, 2006). Protocol approvals were obtained from SMC Laboratories, Japan's IACUC (Study reference no: […] Mice were maintained in a specific pathogen-free (SPF) facility under controlled conditions of temperature (23±3° C.), humidity (50±20%), lighting (12-hour artificial light and dark cycles; light from 8:00 to 20:00) and air exchange. The STAM model of NASH was induced as previously described [D10]. Mice were given a single subcutaneous injection of 200 μg streptozotocin (STZ, Sigma-Aldrich, USA) solution 2 days after birth and fed with a high-fat diet (HFD, 57 kcal % fat, Cat #HFD32, CLEA Japan, Inc., Japan) from 4-9 weeks of age. All mice develop liver steatosis and diabetes and at […] mice had established steatohepatitis, histologically. Studygroups: There were five study groups, described below. Eight mice were included in each study group. Eight NASH mice were orally administered vehicle supplemented with AFO-202 Beta Glucan at a dose of 1 mg/kg in a volume of 5 mL/kg once daily from 6 to 9 weeks of age. Eight NASH mice were orally administered vehicle supplemented with Telmisartan at a dose of 10 mg/kg once daily from 6 to 9 weeks of age. Frequency: Fecal samples were collected at the 6 weeks of age (before administration) and 9 weeks of age (before sacrifice). Procedure: At 6 weeks of age, fecal samples were collected from each mouse by clean catch method. […] A sterile petri dish was placed on the bench. Gently massage the abdomen, position the bottom of mouse over a fresh petri dish, and collect 1-2 fecal pellets. At sacrifice, fecal samples were aseptically collected from cecum. The tubes with feces were placed on ice immediately. These tubes were snap frozen in liquid nitrogen and stored at -80° C. for shipping. In this analysis, the 16S rRNA sequence data acquired by the next-generation sequencer from the fecal […] was used to perform community analysis using the QIIME2 program for microbial community analysis. The raw read data in FASTQ format output from the next-generation sequencer was trimmed to remove adapter sequences and low QV regions that may be included in the data. Cutadapt was used to remove adapter sequences from DNA sequencing reads. Trimmomatic was used as read trimming tool for Illumina NGS data. The adapter sequence was trimmed using the adapter trimming program “cutadapt” if the Trimming of the region at the end of the read sequence overlapped the corresponding sequence by at least one base (mismatch tolerance: 20%). When reads containing N were present in at least one of Read1 and Read2, both Read1 and Read2 were removed. Trimming of low QV regions was performed on the read data after processing using the QV trimming program “Trimmomatic” under the following conditions. The window of 20 bases is slid from the 5' side, and the area where the average QV is less than 20 is trimmed. After trimming, only the reads with more than 50 bases remaining in both Read1 and Read2 were taken as output. The microbial community analysis based on 16S rRNA sequence was performed on the sequence data trimmed in the previous section using the microbial community analysis program “QIIME2”. The annotation program “sklearn” included in QIIME2 is used to annotate the ASV (OTU) sequences. […]

## CCCc1nc2c(C)cc(-c3nc4ccccc4n3C)cc2n1Cc1ccc(-c2ccccc2C(=O)O)cc1 [Telmisartan]
Line r302
  Abundance: S24-7, —, —: 47
Line r303
  Abundance: —, —, —: 0
Line r304
  Abundance: Ruminococcaceae, Oscillospira, —: 35
Line r305
  Abundance: Bacteroidaceae, Bacteroides, acidifaciens: 0
Line r306
  Abundance: Bacteroidaceae, Bacteroides, acidifaciens: 0
Line r307
  Abundance: Lachnospiraceae, Dorea, —: 25
Line r308
  Abundance: Ruminococcaceae, Other, Other: 10
Line r309
  Abundance: Lachnospiraceae, —, —: 7
Line r310
  Abundance: Lachnospiraceae, —, —: 20
Line r311
  Abundance: S24-7, —, —: 1
Line r312
  Abundance: Lachnospiraceae, Other, Other: 14
Line r313
  Abundance: —, —, —: 0
Line r314
  Abundance: Ruminococcaceae, Oscillospira, —: 0
Line r315
  Abundance: Ruminococcaceae, Oscillospira, —: 42
Line r316
  Abundance: Lachnospiraceae, —, —: 14
Line r317
  Abundance: Erysipelotrichaceae, —, —: 0
Line r319
  Abundance: Lachnospiraceae, —, —: 13
Line r320
  Abundance: Ruminococcaceae, Oscillospira, —: 0
Line r321
  Abundance: Lachnospiraceae, —, —: 22
Line r322
  Abundance: Other, Other, Other: 49
Line r323
  Abundance: F16, —, —: 0
Line r324
  Abundance: Christensenellaceae, —, —: 19
Line r325
  Abundance: Lachnospiraceae, Other, Other: 0
Line r326
  Abundance: Ruminococcaceae, Oscillospira, —: 12
Line r327
  Abundance: —, —, —: 80
Line r328
  Abundance: Ruminococcaceae, Other, Other: 14
Line r329
  Abundance: —, —, —: 0
Line r330
  Abundance: Lachnospiraceae, Other, Other: 0
Line r331
  Abundance: Other, Other, Other: 0
Line r332
  Abundance: Enterococcaceae, Vagococcus, —: 0
Line r333
  Abundance: Ruminococcaceae, Ruminococcus, —: 23
Line r334
  Abundance: Erysipelotrichaceae, Coprabacillus, —: 11
Line r335
  Abundance: Other, Other, Other: 0
Line r336
  Abundance: Ruminococcaceae, Oscillospira, —: 11
Line r337
  Abundance: Ruminococcaceae, Oscillospira, —: 0
Line r338
  Abundance: —, —, —: 0
Line r339
  Abundance: Lachnospiraceae, —, —: 0
Line r340
  Abundance: Ruminococcaceae, Oscillospira, —: 0
Line r341
  Abundance: Lachnospiraceae, Coprococcus, —: 0
Line r342
  Abundance: Ruminococcaceae, Other, Other: 8
Line r343
  Abundance: —, —, —: 0
Line r344
  Abundance: Erysipelotrichaceae, —, —: 6
Line r345
  Abundance: Rikenellaceae, —, —: 0
Line r346
  Abundance: —, —, —: 0
Line r347
  Abundance: —, —, —: 0
Line r348
  Abundance: —, —, —: 8
Line r349
  Abundance: Lachnospiraceae, —, —: 0
Line r350
  Abundance: —, —, —: 15
Line r351
  Abundance: Lachnospiraceae, Clostridium, Other: 0
Line r352
  Abundance: Erysipelotrichaceae, —, —: 9
Line r353
  Abundance: Streptococcaceae, Streptococcus, minor: 9
Line r354
  Abundance: Ruminococcaceae, Oscillospira, —: 0
Line r355
  Abundance: —, —, —: 27
Line r356
  Abundance: Lachnospiraceae, Other, Other: 7
Line r357
  Abundance: Other, Other, Other: 36
Line r358
  Abundance: —, —, —: 0
Line r359
  Abundance: —, —, —: 0
Line r360
  Abundance: —, —, —: 0
Line r362
  Abundance: Lachnospiraceae, —, —: 7
Line r363
  Abundance: Streptococcaceae, Streptococcus, —: 0
Line r365
  Abundance: S24-7, —, —: 0
Line r367
  Abundance: Other, Other, Other: 0
Line r368
  Abundance: [Mogibacteriaceae], —, —: 0
Line r369
  Abundance: Enterobacteriaceae, Enterobacter, Other: 0
Line r371
  Abundance: Erysipelotrichaceae, —, —: 0
Line r372
  Abundance: Aerococcaceae, Aerococcus, —: 0
Line r373
  Abundance: Ruminococcaceae, Oscillospira, —: 0
Line r374
  Abundance: Ruminococcaceae, Oscillospira, —: 0
Line r375
  Abundance: Other, Other, Other: 5
Line r377
  Abundance: Lachnospiraceae, Coprococcus, —: 0
Line r378
  Abundance: Other, Other, Other: 35
Table row r380
  Abundance: Family Lachnospiraceae, Genus Other, Species Other: 11
Table row r381
  Abundance: Family Ruminococcaceae, Genus Oscillospira, Species —: 0
Table row r382
  Abundance: Family S24-7, Genus —, Species —: 0
Table row r383
  Abundance: Family Ruminococcaceae, Genus Ruminococcus, Species —: 0
Table row r384
  Abundance: Family Ruminococcaceae, Genus Oscillospira, Species —: 31
Table row r389
  Abundance: Family Ruminococcaceae, Genus Ruminococcus, Species —: 0
Table row r390
  Abundance: Family Lachnospiraceae, Genus —, Species —: 0
Table row r391
  Abundance: Family Ruminococcaceae, Genus Oscillospira, Species —: 0
Table row r394
  Abundance: Family Corynebacteriaceae, Genus Corynebacterium, Species stationis: 0
Table row r395
  Abundance: Family Ruminococcaceae, Genus Other, Species Other: 5
Table row r396
  Abundance: Family S24-7, Genus —, Species —: 0
Table row r397
  Abundance: Family Ruminococcaceae, Genus Oscillospira, Species —: 0
Table row r398
  Abundance: Family Ruminococcaceae, Genus Oscillospira, Species —: 0
Table row r399
  Abundance: Family Ruminococcaceae, Genus Ruminococcus, Species —: 0
Table row r400
  Abundance: Family [Mogibacteriaceae], Genus —, Species —: 0
Table row r401
  Abundance: Family Erysipelotrichaceae, Genus Coprobacillus, Species —: 0
Table row r402
  Abundance: Family Erysipelotrichaceae, Genus Clostridium, Species cocleatum: 0
Table row r403
  Abundance: Family S24-7, Genus —, Species —: 0
Table row r404
  Abundance: Family Coriobacteriaceae, Genus —, Species —: 0
Table row r405
  Abundance: Family Coriobacteriaceae, Genus Adlercreutzia, Species —: 0
Table row r407
  Abundance: Family Enterococcaceae, Genus Vagococcus, Species —: 0
Table row r409
  Abundance: Family [Mogibacteriaceae], Genus —, Species —: 0
Table row r413
  Abundance: Family S24-7, Genus —, Species —: 0
Table row r414
  Abundance: Family Ruminococcaceae, Genus Oscillospira, Species —: 0
Table row r415
  Abundance: Family Planococcaceae, Genus Sporosarcina, Species —: 0
Table row r417
  Abundance: Family Erysipelotrichaceae, Genus Other, Species Other: 7
Table row r419
  Abundance: Family Ruminococcaceae, Genus Ruminococcus, Species —: 0
Table row r423
  Abundance: Family Coriobacteriaceae, Genus Adlercreutzia, Species —: 0
Table row r424
  Abundance: Family Other, Genus Other, Species Other: 0
Table row r425
  Abundance: Family Ruminococcaceae, Genus Other, Species Other: 0
Table row r426
  Abundance: Family Erysipelotrichaceae, Genus —, Species —: 0
Table row r427
  Abundance: Family Deferribacteraceae, Genus Mucispirillum, Species schaedleri: 0
Table row r428
  Abundance: Family Methylobacteriaceae, Genus Methylobacterium, Species Other: 0
